In patent US20230227511A1, “THERAPEUTIC OR […] FOR INFECTIOUS DISEASE” (NIPPON MEDICAL SCHOOL FOUNDATION, priority 2020, published 2023):

Key:
sepsis mouse models = test: Administration of the 50-amino acid peptide (PTX3N50) to sepsis mouse models; type: in vivo; conditions: peptide not fused to Fc
[1] = system: vascular endothelial cells; conditions: Patent Document 1; cited from earlier work

PTX3N50: 50-amino acid peptide on the N-terminal side of PTX3, not fused to Fc (ENSDDYDLMYVNLDNEIDNGLHPTEDPTPCACGQEHSEWDKLFIMLENSQ; UniProt P26022 18-67, looked up, fragment)
survival percentage of the sepsis mouse models (sepsis mouse models): could not improve the survival percentage | action to suppress histone cytotoxicity against vascular endothelial cells [1]: has an action to suppress histone cytotoxicity
